From ChEMBL document CHEMBL1201862, “PubChem BioAssay data set” (2004)
Calls of active or inactive are those of the source.

Tests used:
[1] = test system: HEK293; assay: cells; assay type: functional, cell-based; details: Homo sapiens
[2] = biological target: T1, Nuclear receptor subfamily 0 group B member 1 (Homo sapiens, UniProt P51843); assay: Luminescence-based cell-based high throughput dose response assay for inhibitors of the orphan nuclear receptor subfamily 0, group B, member 1 (DAX1; NR0B1). [Related pubchem assays (depositor defined):AID504766, AID504790]; assay type: functional
T1 sequence (P51843 whole entry): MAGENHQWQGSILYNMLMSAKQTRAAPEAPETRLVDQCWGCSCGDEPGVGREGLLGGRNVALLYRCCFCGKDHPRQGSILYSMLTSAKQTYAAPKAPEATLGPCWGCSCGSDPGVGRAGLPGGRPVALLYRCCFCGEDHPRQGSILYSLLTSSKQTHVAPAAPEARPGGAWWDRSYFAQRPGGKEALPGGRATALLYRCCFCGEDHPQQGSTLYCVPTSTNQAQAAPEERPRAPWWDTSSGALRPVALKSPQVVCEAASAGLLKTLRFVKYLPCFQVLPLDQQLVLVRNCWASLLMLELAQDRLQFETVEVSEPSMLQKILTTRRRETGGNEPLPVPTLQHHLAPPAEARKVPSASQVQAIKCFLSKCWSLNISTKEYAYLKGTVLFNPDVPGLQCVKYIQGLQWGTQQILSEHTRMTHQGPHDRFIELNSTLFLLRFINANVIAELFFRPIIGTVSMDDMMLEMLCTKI

[3] = biological target: T2, RNA-binding protein pos-1 (Caenorhabditis elegans, UniProt G5EF15); assay: inhibitors of POS-1/mex-3 RNA binding, dose response, biochemical, fluorescence polarization (AID 1964);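 further: purified POS-1 fused to maltose binding protein made in E. coli; potency of compounds blocking POS-1 binding to fluorescent RNA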
T2 sequence (G5EF15 whole entry): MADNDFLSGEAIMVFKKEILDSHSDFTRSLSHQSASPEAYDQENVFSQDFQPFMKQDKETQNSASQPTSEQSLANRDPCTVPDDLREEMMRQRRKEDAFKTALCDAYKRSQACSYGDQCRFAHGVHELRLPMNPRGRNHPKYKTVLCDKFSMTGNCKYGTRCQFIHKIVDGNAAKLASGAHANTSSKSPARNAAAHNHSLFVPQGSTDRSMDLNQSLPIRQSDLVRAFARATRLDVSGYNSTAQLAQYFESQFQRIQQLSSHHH

[4] = biological target: G-protein coupled receptor 55 (Homo sapiens, UniProt Q9Y2T6); assay: GPR55 antagonists blocking LPI-driven arrestin recruitment, primary screen, imaging, U2OS, beta-arrestin-GFP, LPI agonist (AID 2013); assay type: functional;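 further: antagonist potency measured as reduced agonist-driven arrestin aggregation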
[5] = biological target: T3, Zinc finger protein mex-5 (Caenorhabditis elegans, UniProt Q9XUB2); assay: MEX-5/TCR-2 RNA interaction inhibitors, dose response, biochemical, C. elegans, fluorescence polarization (AID 1960)
T3 sequence (Q9XUB2 whole entry): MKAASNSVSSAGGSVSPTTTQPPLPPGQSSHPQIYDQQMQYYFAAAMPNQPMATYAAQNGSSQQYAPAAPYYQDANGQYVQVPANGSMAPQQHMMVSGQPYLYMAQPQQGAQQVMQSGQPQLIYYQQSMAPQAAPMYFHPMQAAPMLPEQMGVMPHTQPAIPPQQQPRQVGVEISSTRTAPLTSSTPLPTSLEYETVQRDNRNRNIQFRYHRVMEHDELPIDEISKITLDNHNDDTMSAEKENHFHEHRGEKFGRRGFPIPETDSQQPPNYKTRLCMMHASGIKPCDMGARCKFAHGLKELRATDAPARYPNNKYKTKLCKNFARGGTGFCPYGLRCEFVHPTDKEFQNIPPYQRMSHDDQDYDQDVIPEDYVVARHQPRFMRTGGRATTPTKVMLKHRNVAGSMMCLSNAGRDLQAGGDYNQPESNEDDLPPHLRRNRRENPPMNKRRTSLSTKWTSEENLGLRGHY

[6] = biological target: DNA dC->dU-editing enzyme APOBEC-3A (Homo sapiens, UniProt P31941); assay: Dose Response confirmation of small molecule APOBEC3A DNA Deaminase Inhibitors via a fluorescence-based single-stranded DNA deaminase assay. [Related pubchem assays (depositor defined):AID493011, AID493024]; assay type: functional
[7] = biological target: DNA dC->dU-editing enzyme APOBEC-3G (Homo sapiens, UniProt Q9HC16); assay type: functional;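 further: Dose-response counterscreen measuring inhibition of APOBEC3G DNA deaminase activity, run while confirming APOBEC3A inhibitors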
[8] = biological target: Voltage-gated inwardly rectifying potassium channel KCNH2 (Homo sapiens, UniProt Q12809); details: Potency;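 further: confirmatory quantitative high-throughput screen measuring inhibition of hERG channel activity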
[9] = biological target: T4, Carboxy-terminal domain RNA polymerase II polypeptide A small phosphatase 1 (Homo sapiens, UniProt Q9GZU7); assay: inhibitors of CTDSP1, concentration-response testing, biochemical assay, absorbance-based, actives from ultra-high-throughput screening (AID 540297); assay type: functional
T4 sequence (Q9GZU7 whole entry): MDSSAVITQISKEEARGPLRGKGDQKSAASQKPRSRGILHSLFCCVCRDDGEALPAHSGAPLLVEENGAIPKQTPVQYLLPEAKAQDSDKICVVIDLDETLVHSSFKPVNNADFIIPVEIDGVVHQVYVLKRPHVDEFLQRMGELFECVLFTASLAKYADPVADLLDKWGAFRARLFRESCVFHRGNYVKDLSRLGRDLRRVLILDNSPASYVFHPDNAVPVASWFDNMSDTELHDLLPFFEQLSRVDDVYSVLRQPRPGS

[10] = Luminescence Cell-Based Dose Retest to Confirm Inhibitors of Cancer Stem Cells. [Related pubchem assays (depositor defined):AID2717, AID2721]; assay type: functional; details: Homo sapiens
[11] = test system: Vero; assay: cells; assay type: functional; details: Chlorocebus sabaeus
[12] = test system: HeLa; assay: HeLa cell cytotoxicity, dose response, cytotoxicity control, 24 h, cherry-picked samples (AID 504726); assay type: functional, cell-based; details: Homo sapiens;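 further: potency for cytotoxicity as loss of luminescence signal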
[13] = biological target: T5, Rac GTPase-activating protein 1 (Homo sapiens, UniProt Q9H0H5); assay: MgcRacGAP GTPase-activating activity inhibitors, confirmation, biochemical, ADP Hunter fluorescence, primary and confirmatory (AID 624330); assay type: functional
T5 sequence (Q9H0H5 whole entry): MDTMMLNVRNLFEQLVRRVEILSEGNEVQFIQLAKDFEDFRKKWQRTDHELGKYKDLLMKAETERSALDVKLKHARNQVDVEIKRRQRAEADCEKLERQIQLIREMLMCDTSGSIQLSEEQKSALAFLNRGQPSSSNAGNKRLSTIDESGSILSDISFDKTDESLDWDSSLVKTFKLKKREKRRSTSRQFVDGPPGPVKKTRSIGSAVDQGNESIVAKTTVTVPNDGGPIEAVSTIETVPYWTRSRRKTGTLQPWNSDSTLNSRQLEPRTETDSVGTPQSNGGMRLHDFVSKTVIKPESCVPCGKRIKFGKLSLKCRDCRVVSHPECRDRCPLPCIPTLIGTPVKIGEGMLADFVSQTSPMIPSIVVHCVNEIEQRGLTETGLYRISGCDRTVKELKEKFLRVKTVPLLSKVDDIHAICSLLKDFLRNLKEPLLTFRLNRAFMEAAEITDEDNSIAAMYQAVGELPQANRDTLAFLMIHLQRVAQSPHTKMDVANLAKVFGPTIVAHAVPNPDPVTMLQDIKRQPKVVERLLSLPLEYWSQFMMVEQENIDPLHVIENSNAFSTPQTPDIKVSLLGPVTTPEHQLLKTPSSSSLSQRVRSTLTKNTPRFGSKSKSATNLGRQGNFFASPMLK

[14] = biological target: T6, Small ubiquitin-related modifier 1 (Homo sapiens, UniProt P63165); assay: inhibitors of SUMO1 partner interactions, dose response, biochemical, FRET (AID 624383); assay type: functional; details: read-out: IC50_Mean
[15] = biological target: Albumin (Bos taurus, UniProt P02769); assay: Counterscreen for inhibitors of T-cell receptor (TCR)-CD3 interaction: Fluorescence-based biochemical high throughput dose response assay to identify inhibitors of T-cell receptor (TCR)-CD3 interaction using a TAMRA-labeled BSA probe.; assay type: functional
[16] = biological target: T6, Small ubiquitin-related modifier 1; assay: inhibitors of SUMO1 peptide binding, dose response, biochemical, fluorescence polarization, uHTS hits (AID 624382); assay type: functional; details: read-out: IC50_Mean
[17] = biological target: Alkaline phosphatase, placental type (Homo sapiens, UniProt P05187); assay: PLAP enzyme inhibitors, confirmation, biochemical, luminescence (AID 1512); assay type: functional
[18] = biological target: T7, Alkaline phosphatase, tissue-nonspecific isozyme (Homo sapiens, UniProt P05186); assay: human TNAP enzyme inhibitors, SAR follow-up, biochemical, luminescent, dose response (AID 1056)
T7 sequence (P05186 whole entry): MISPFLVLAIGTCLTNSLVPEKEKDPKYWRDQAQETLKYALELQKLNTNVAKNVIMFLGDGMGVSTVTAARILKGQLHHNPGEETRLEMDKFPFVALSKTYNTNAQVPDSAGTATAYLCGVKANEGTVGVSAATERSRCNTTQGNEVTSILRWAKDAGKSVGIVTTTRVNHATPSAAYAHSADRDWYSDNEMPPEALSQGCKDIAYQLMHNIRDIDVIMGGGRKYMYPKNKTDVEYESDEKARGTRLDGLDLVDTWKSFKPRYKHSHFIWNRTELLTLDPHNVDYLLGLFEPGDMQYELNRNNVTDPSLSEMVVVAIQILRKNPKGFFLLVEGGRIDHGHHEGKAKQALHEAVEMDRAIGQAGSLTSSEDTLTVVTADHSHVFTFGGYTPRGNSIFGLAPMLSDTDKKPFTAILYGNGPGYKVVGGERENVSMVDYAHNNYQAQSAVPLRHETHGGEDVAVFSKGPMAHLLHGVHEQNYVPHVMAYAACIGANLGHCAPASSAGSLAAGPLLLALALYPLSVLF

[19] = biological target: Nonstructural protein 1 (Influenza A virus, UniProt Q194T2); assay type: functional, Influenza A virus (A/California/07/2009(H1N1))
[20] = test system: HEK293; assay: cells; details: Homo sapiens
[21] = biological target: Tumor necrosis factor (Homo sapiens, UniProt P01375); assay: TNFa-triggered NF-kB activation inhibitors, SAR follow-up, cell-based, revised (AID 2337); assay type: functional
[22] = biological target: T8, Nucleotide-binding oligomerization domain-containing protein 1 (Homo sapiens, UniProt Q9Y239); assay: NOD1 signaling inhibitors, SAR follow-up, revised (AID 2333); assay type: functional
T8 sequence (Q9Y239 whole entry): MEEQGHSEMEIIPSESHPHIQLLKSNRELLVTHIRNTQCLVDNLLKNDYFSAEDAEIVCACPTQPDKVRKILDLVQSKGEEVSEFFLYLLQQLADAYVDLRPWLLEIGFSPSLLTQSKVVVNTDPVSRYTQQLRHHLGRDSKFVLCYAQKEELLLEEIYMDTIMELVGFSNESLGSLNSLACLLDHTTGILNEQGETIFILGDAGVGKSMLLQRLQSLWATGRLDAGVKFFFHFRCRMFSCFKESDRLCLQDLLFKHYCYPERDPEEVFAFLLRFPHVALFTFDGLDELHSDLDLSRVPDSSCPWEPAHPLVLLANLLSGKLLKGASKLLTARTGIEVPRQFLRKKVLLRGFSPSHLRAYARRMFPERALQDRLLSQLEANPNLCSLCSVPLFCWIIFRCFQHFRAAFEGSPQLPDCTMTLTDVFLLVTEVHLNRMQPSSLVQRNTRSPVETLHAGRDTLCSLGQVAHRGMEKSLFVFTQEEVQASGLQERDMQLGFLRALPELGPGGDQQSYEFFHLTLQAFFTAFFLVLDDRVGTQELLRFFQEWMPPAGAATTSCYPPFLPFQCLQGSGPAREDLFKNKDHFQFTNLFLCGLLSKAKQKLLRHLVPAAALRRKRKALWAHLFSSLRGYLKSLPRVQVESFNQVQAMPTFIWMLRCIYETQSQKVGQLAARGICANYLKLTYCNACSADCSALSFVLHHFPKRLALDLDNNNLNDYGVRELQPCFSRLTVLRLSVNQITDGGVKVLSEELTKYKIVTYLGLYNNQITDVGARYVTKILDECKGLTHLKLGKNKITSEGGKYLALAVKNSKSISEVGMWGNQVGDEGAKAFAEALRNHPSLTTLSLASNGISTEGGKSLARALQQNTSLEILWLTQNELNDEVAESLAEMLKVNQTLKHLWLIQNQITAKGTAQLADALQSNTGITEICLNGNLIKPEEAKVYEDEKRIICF

[23] = test system: H9c2; assay: cells; assay type: functional, cell-based; details: Rattus norvegicus, H9c2, Myocardium;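 further: confirmatory concentration-response retest of ultra-high-throughput screening hits for modulation of myocardial damage; cell death induced by hydrogen peroxide oxidative stress; compound pretreatment for 60 min then peroxide exposure for 2 h; potency is for protecting the cells against peroxide damage rather than for killing them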

Sequence of Tumor necrosis factor (P01375 whole entry, the tested form may be a part): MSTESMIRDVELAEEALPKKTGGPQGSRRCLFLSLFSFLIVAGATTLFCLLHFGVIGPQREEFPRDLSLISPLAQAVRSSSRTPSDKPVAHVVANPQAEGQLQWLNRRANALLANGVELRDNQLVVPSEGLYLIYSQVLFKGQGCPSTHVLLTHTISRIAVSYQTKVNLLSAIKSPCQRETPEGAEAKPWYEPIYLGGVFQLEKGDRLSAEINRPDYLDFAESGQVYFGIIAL
Sequence of Alkaline phosphatase, placental type (P05187 whole entry): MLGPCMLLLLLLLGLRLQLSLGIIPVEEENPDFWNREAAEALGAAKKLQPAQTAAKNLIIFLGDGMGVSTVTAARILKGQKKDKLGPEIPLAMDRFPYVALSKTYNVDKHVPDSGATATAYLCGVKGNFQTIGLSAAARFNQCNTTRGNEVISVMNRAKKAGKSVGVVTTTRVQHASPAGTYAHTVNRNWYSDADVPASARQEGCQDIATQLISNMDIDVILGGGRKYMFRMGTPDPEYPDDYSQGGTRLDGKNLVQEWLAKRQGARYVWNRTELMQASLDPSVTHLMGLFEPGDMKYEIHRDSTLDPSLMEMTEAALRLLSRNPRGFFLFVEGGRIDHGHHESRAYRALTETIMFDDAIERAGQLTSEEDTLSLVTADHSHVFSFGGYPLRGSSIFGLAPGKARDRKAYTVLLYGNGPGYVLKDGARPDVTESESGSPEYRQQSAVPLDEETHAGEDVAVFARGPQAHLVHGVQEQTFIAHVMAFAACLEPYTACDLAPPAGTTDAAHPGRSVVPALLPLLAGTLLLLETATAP
T6 sequence (P63165 whole entry): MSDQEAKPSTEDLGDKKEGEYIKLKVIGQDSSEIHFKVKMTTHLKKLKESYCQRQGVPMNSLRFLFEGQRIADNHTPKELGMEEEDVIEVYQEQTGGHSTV
Sequence of Voltage-gated inwardly rectifying potassium channel KCNH2 (Q12809 whole entry, the tested form may be a part): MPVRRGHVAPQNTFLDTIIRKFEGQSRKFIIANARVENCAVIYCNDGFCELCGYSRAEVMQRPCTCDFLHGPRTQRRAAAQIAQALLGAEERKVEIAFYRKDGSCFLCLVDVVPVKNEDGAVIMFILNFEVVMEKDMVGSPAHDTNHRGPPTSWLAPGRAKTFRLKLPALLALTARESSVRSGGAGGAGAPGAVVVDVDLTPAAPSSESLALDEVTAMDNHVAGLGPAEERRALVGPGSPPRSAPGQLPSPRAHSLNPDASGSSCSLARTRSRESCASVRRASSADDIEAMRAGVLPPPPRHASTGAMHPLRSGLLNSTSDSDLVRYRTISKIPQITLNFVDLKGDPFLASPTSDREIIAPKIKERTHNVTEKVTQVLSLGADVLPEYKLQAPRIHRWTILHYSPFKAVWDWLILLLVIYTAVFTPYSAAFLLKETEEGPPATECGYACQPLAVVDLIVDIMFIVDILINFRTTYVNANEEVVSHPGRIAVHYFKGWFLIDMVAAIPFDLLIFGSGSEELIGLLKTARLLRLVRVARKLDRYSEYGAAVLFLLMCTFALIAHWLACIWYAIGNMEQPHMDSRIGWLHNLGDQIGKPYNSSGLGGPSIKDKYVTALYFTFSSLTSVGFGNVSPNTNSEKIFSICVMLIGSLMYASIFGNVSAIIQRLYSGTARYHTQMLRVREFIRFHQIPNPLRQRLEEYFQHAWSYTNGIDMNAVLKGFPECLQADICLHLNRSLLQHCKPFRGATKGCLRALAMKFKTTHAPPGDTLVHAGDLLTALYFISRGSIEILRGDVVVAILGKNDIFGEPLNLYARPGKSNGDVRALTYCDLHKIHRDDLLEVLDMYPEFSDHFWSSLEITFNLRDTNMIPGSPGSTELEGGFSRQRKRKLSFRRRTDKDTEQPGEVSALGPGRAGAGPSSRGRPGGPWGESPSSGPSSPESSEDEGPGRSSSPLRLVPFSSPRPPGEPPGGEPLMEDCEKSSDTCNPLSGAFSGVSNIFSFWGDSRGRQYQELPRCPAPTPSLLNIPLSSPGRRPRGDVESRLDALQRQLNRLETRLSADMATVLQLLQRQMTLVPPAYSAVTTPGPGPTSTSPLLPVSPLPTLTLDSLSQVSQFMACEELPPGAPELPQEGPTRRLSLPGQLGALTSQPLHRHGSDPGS
Sequence of Albumin (P02769 whole entry): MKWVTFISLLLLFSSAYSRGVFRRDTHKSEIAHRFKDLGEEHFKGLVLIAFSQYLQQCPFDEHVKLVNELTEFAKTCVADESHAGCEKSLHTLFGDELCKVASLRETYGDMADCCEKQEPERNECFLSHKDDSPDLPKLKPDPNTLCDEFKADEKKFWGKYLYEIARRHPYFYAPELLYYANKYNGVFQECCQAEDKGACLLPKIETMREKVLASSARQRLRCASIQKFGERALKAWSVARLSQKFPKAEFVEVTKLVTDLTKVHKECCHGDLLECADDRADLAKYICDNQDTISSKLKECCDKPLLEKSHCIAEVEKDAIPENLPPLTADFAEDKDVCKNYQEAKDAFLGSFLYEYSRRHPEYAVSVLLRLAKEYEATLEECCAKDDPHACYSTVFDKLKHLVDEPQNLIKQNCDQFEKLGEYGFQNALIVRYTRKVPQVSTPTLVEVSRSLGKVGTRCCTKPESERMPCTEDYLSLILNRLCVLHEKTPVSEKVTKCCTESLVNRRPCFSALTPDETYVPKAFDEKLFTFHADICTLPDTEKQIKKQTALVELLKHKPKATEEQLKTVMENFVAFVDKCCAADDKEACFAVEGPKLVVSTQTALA
Sequence of DNA dC->dU-editing enzyme APOBEC-3G (Q9HC16 whole entry): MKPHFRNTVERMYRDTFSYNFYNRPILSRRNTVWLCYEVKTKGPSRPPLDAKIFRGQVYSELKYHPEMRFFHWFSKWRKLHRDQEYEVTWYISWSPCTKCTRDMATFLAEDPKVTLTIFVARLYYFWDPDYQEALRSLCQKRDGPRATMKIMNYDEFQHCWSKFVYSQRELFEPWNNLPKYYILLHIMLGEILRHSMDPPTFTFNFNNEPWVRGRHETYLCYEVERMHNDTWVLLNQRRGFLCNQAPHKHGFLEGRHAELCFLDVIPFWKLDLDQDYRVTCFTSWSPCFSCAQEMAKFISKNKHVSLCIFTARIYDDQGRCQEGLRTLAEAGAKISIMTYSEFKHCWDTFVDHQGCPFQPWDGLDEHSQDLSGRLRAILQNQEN
Sequence of Nonstructural protein 1 (Q194T2 whole entry): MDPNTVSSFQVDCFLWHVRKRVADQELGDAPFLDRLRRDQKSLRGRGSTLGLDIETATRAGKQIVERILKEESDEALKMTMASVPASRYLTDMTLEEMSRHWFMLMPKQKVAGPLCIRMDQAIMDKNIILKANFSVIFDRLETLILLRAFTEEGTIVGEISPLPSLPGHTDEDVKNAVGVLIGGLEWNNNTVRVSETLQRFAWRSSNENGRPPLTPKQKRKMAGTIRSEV
Sequence of DNA dC->dU-editing enzyme APOBEC-3A (P31941 whole entry): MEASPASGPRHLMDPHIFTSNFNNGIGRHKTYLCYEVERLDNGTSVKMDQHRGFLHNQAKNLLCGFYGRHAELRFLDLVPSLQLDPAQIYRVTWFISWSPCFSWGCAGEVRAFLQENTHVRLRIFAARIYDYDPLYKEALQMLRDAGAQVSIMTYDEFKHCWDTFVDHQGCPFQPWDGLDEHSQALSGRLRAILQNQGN
Sequence of G-protein coupled receptor 55 (Q9Y2T6 whole entry): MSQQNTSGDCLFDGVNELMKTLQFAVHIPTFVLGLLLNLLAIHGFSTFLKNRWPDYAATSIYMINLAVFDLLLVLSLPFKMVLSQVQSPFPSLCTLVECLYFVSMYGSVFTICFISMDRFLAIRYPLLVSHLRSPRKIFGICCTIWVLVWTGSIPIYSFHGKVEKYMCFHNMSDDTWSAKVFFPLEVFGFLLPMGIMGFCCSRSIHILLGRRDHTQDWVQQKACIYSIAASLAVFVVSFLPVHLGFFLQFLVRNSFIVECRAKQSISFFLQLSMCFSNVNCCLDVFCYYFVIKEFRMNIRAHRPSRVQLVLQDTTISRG

O=C(NNc1nc2c(F)cccc2s1)c1ccccc1
IC50 [1]: > 67.5 µM (inactive)
IC50 [2]: > 67.5 µM (inactive)

COC(=O)C1=C(C)N(Cc2ccccc2)C(=NCC(C)C)N[C@H]1c1ccccc1
EC50 [3]: > 300 µM (not active)
IC50 [4]: 1.78 µM (active)
EC50 [5]: 42.7 µM (active)
IC50 [6]: 4.65 µM (active)
IC50 [7]: 4.17 µM (active)

CCCCOC(=O)c1ccccc1C(=O)OCc1ccccc1
AC50 [8]: 25.1 µM (inconclusive)

N#Cc1c(SCC(=O)Nc2cccc(F)c2)sc2c(O)cc(=O)[nH]c12
IC50 [9]: 7.26 µM (active)

O=C(Nc1ccc(Cl)cc1)c1cc2c(cc1O)[nH]c1ccccc12
AC50 [10]: 0.198 µM (active)
CC50 [11]: 10.9 µM (active)

O=C(OCc1cc(=O)n2c(n1)sc1ccccc12)c1ccc(O)cc1
IC50 [9]: 5.75 µM (active)

COc1ccc(C(=O)N[C@H](C(=O)NCCCSc2ccccc2)C(C)C)cc1
IC50 [1]: > 67.5 µM (inactive)
IC50 [2]: > 67.5 µM (inactive)

CCOc1ccc(Nc2ccc(N)c(S(=O)(=O)O)c2)cc1
AC50 [12]: 299 µM (active)
IC50 [9]: 3.21 µM (active)
IC50 [13]: 68.9 µM (active)
IC50 [14]: 11.7 µM (active)
IC50 [15]: > 94.1 µM (inactive)
IC50 [16]: > 66.6 µM (inactive)

CCCCN1C(=O)/C(=N\Nc2ccccc2)c2ccccc21
IC50 [17]: 18.7 µM (active)
IC50 [18]: 72.3 µM (active)

CN1CCN(C2CCN(c3ccc(Nc4nnc(Cl)c(Nc5ccccc5S(C)(=O)=O)n4)c(OC(CF)CF)c3)CC2)CC1
IC50 [19]: > 100 µM (active)

CCOc1ccc(NC(=O)c2ccc(CCN3CCc4ccccc4C3)cc2)cc1
IC50 [20]: > 20 µM (inactive)
IC50 [21]: > 20 µM (inactive)
IC50 [22]: > 20 µM (inactive)

CN(C)c1ccc(NC(=O)c2ccc(CN3CCc4ccccc4C3)cc2)cc1
IC50 [20]: > 20 µM (inactive)
IC50 [21]: 1.83 µM (active)
IC50 [22]: 1.61 µM (active)

Cn1c(NCC(=O)c2ccc(O)c(O)c2)nc2ccccc21
IC50 [17]: 7.9 µM (active)
IC50 [18]: 8.58 µM (active)

Cc1[nH]c2ccccc2c1/C=N/NC(=O)c1cccs1
IC50 [1]: > 67.6 µM (inactive)
IC50 [2]: > 67.6 µM (inactive)
IC50 [23]: > 79 µM (inactive)
